Laboratory results as given in US10821115B2, “Compounds that inhibit Mcl-1 protein” (priority 2017, dated 2020).
Where two headings read alike, the source gives them in different places.

Experiments:
[1] = target: recombinant human Mcl-1 (residues 171-327) / Bim interaction (Homo sapiens (Human), UniProt Q07820); experiment: biochemical; format: binding; settings: read-out: Mcl-1 HTRF IC50
[2] = tested on: human multiple myeloma cell line, OPM-2; experiment: Cell viability assay (OPM-2 10 FBS), CellTiter-Glo; format: cell-based
Method in brief: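 Cells were seeded at 3000 cells/well in RPMI 1640 with 10% FBS and exposed to serially diluted compounds for 16 h at 37 °C, 5% CO2.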

[3] = 0.1 nM Mcl-1(171-327), 0.05 nM biotin-Bim (51-76)
[4] = Homo sapiens, OPM-2, 16 h, read-out: OPM-2 10% FBS IC50 IP, OPM-2 cells, 10% FBS, 16 h incubation
[5] = TR-FRET, Mcl-1(171-327) / biotin-Bim (51-76)
[6] = Homo sapiens, OPM-2, 16 h, read-out: OPM-2 10% FBS IC50 IP, OPM-2 cells, 10% FBS, 16 h, CellTiter-Glo
[7] = read-out: OPM-2 10% FBS IC50 IP, OPM-2 cells, 10% FBS, 16 h, CellTiter-Glo
[8] = read-out: OPM-2 10% FBS IC50 IP, OPM-2 cells, 10% FBS, 16 h incubation

Sequence of recombinant human Mcl-1 (residues 171-327) / Bim interaction (Q07820 171-327): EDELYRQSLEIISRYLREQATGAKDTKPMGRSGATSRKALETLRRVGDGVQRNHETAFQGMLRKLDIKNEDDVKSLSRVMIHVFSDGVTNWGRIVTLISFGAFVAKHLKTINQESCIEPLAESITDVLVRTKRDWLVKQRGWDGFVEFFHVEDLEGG

Molecule | IC50 [1, 3] | IC50 [1, 5] | IC50 [2, 6] | also measured
CC(C)CO[C@@]1(CN2CCN3CCCC[C@@H]3C2)/C=C/C[C@H](C)[C@@H](C)S(=O)(=O)NC(=O)c2ccc3c(c2)N(C[C@@H]2CC[C@H]21)C[C@@]1(CCCc2cc(Cl)ccc21)CO3 [Example 350, (15,3′R,6′R,7′S,8′E,11′S,12′R)-6-chloro-11′,12′-dimethyl-7′-(2-methylpropoxy)-7′-((9aR)-octahydro-2H-pyrido[1,2-a]pyrazin-2-ylmethyl)-3,4-dihydro-2H,15′H-spiro[naphthalene-1,22′-[20]oxa[13]thia[1,14]diazatetracyclo [14.7.2.0~3,6~.0~19,24~]pentacosa[8,16,18,24]tetraen]-15′-one 13′,13′-dioxide] | 12.3 nM | – | – | IC50 [2, 4]: > 33300 nM
C[C@@H]1[C@@H](C)C/C=C/[C@@](O)(c2ccccn2)[C@@H]2CC[C@H]2CN2C[C@@]3(CCCc4cc(Cl)ccc43)COc3ccc(cc32)C(=O)NS1(=O)=O (single isomer, unassigned) [Example 100181] | – | 0.537 nM | 226 nM | –
CO[C@@]1(C[C@H](O)c2ccccn2)/C=C/C[C@H](C)[C@@H](C)S(=O)(=O)NC(=O)c2ccc3c(c2)N(C[C@@H]2CC[C@H]21)C[C@@]1(CCCc2cc(Cl)ccc21)CO3 (single isomer, unassigned) [Example 100489] | – | 0.88 nM | – | IC50 [2, 7]: 182 nM
CC[C@@H]1CC/C=C/[C@](CN2CCN(C)CC2)(OC)[C@@H]2CC[C@H]2CN2C[C@@]3(CCCc4cc(Cl)ccc43)COc3ccc(cc32)C(=O)NS1(=O)=O [Example 31, (1S,3′R,6′R,7′S,8′E,12′R)-6-chloro-12′-ethyl-7′-methoxy-7′-((4-methyl-1-piperazinyl)methyl)-3,4-dihydro-2H,15′H-spiro[naphthalene-1,22′-[20]oxa[13]thia[1,14]diazatetracyclo [14.7.2.0~3,6~.0~19,24~]pentacosa[8,16,18,24]tetraen]-15′-one 13′,13′-dioxide] | 0.184 nM | – | – | IC50 [2, 4]: 216 nM
CO[C@]1(CCN2CCN3CCOC[C@@H]3C2)/C=C/C[C@H](C)[C@@H](C)S(=O)(=O)NC(=O)c2ccc3c(c2)N(C[C@@H]2CC[C@H]21)C[C@@]1(CCCc2cc(Cl)ccc21)CO3 [Example 100425, (1S,3′R,6′R,7′R,8′E,11′S,12′R)-6-chloro-7′-(2-((9aS)-hexahydropyrazino[2,1-c][1,4]oxazin-8(1H)-yl)ethyl)-7′-methoxy-11′,12′-dimethyl-3,4-dihydro-2H,15′H-spiro[naphthalene-1,22′-[20]oxa[13]thia[1,14]diazatetracyclo [14.7.2.0~3,6~.0~19,24~]pentacosa[8,16,18,24]tetraen]-15′-one 13′,13′-dioxide] | – | 0.165 nM | 717 nM | –
CO[C@]1(CN2CCN(C3CCC3)CC2)/C=C/C[C@H](C)[C@@H](C)S(=O)(=O)NC(=O)c2ccc3c(c2)N(C[C@@H]2CC[C@H]21)C[C@@]1(CCCc2cc(Cl)ccc21)CO3 [Example 92, (1S,3′R,6′R,7′R,8′E,11′S,12′R)-6-chloro-7′-((4-cyclobutyl-1-piperazinyl)methyl)-7′-methoxy-11′,12′-dimethyl-3,4-dihydro-2H,15′H-spiro[naphthalene-1,22′-[20]oxa[13]thia[1,14]diazatetracyclo [14.7.2.0~3,6~.0~19,24~]pentacosa[8,16,18,24]tetraen]-15′-one 13′,13′-dioxide] | 0.143 nM | – | – | IC50 [2, 4]: 199 nM
CO[C@@]1(CN2CCN3CCN(C(C)C)C[C@@H]3C2)/C=C/C[C@H](C)[C@@H](C)S(=O)(=O)NC(=O)c2ccc3c(c2)N(C[C@@H]2CC[C@H]21)C[C@@]1(CCCc2cc(Cl)ccc21)CO3 (single isomer, unassigned) [Example 240] | 0.128 nM | – | – | IC50 [2, 8]: 141 nM
C[C@@H]1[C@@H](C)CCC[C@](O)(CC(=O)N2CCOCC2)[C@@H]2CC[C@H]2CN2C[C@@]3(CCCc4cc(Cl)ccc43)COc3ccc(cc32)C(=O)NS1(=O)=O (single isomer, unassigned) [Example 100087] | – | 0.864 nM | 187 nM | –
CCOC(=O)C(F)(F)[C@@]1(O)/C=C/C[C@H](C)[C@@H](C)S(=O)(=O)NC(=O)c2ccc3c(c2)N(C[C@@H]2CC[C@H]21)C[C@@]1(CCCc2cc(Cl)ccc21)CO3 [Example 100414, ethyl ((1S,3′R,6′R,7′R,8′E,11′S,12′R)-6-chloro-7′-hydroxy-11′,12′-dimethyl-13′,13′-dioxido-15′-oxo-3,4-dihydro-2H-spiro[naphthalene-1,22′-[20]oxa[13]thia[1,14]diazatetracyclo [14.7.2.0~3,6~.0~19,24~]pentacosa[8,16,18,24]tetraen]-7′-yl)(difluoro)acetate] | – | 0.626 nM | 1270 nM | –
C[C@@H]1[C@@H](C)CCC[C@@](O)(COCCN(C)C)[C@@H]2CC[C@H]2CN2C[C@@]3(CCCc4cc(Cl)ccc43)COc3ccc(cc32)C(=O)NS1(=O)=O [Example 100194, (1S,3′R,6′R,7′S,11S,12R)-6-chloro-7′-((2-(dimethylamino)ethoxy)methyl)-7′-hydroxy-11′,12′-dimethyl-3,4-dihydro-2H,15′H-spiro[naphthalene-1,22′-[20]oxa[13]thia[1,14]diazatetracyclo [14.7.2.0~3,6~.0~19,24~]pentacosa[16,18,24]trien]-15′-one 13′,13′-dioxide] | – | 0.613 nM | 619 nM | –
C[C@@H]1[C@@H](C)C/C=C/[C@](O)(c2ncnn2C)[C@@H]2CC[C@H]2CN2C[C@@]3(CCCc4cc(Cl)ccc43)COc3ccc(cc32)C(=O)NS1(=O)=O [Example 100221, (1S,3′R,6′R,7′R,8′E,11′S,12′R)-6-chloro-7′-hydroxy-11′,12′-dimethyl-7′-(1-methyl-1H-1,2,4-triazol-5-yl)-3,4-dihydro-2H,15′H-spiro[naphthalene-1,22′-[20]oxa[13]thia[1,14]diazatetracyclo [14.7.2.0~3,6~.0~19,24~]pentacosa[8,16,18,24]tetraen]-15′-one 13′,13′-dioxide] | – | 0.525 nM | 776 nM | –
COC[C@]1(O)CCC[C@H](C)[C@@H](C)S(=O)(=O)NC(=O)c2ccc3c(c2)N(C[C@@H]2CC[C@H]21)C[C@@]1(CCCc2cc(Cl)ccc21)CO3 (stereo in doubt) [Example 100149, (1S,3′R,6′R,7′S,11′S,12′R)-6-chloro-7′-hydroxy-7′-(methoxymethyl)-11′,12′-dimethyl-3,4-dihydro-2H,15′H-spiro[naphthalene-1,22′-[20]oxa[13]thia[1,14]diazatetracyclo [14.7.2.0~3,6~.0~19,24~]pentacosa[16,18,24]rien]-15′-one 13′,13′-dioxide] | – | 0.214 nM | 186 nM | –
CC[C@@H]1CC/C=C/[C@](O)(C(F)(F)F)[C@@H]2CC[C@H]2CN2C[C@@]3(CCCc4cc(Cl)ccc43)COc3ccc(cc32)C(=O)NS1(=O)=O [Example 100044, (1S,3′R,6′R,7′R,8′E,12′R)-6-chloro-12′-ethyl-7′-hydroxy-7′-(trifluoromethyl)-3,4-dihydro-2H,15′H-spiro[naphthalene-1,22′-[20]oxa[13]thia[1,14]diazatetracyclo [14.7.2.0~3,6~.0~19,24~]pentacosa[8,16,18,24]tetraen]-15′-one 13′,13′-dioxide] | – | 31.1 nM | – | IC50 [2, 7]: 7290 nM
CO[C@]1(CCN2CCOCC2)/C=C/C[C@H](C)[C@@H](C)S(=O)(=O)NC(=O)c2ccc3c(c2)N(C[C@@H]2CC[C@H]21)C[C@@]1(CCCc2cc(Cl)ccc21)CO3 [Example 100365, (1S,3′R,6′R,7′R,8′E,11′S,12′R)-6-chloro-7′-methoxy-11′,12′-dimethyl-7′-(2-(4-morpholinyl)ethyl)-3,4-dihydro-2H,15′H-spiro[naphthalene-1,22′-[20]oxa[13]thia[1,14]diazatetracyclo [14.7.2.0~3,6~.0~19,24~]pentacosa[8,16,18,24]tetraen]-15′-one 13′,13′-dioxide] | – | 0.257 nM | 245 nM | –
COC(=O)[C@]1(O)/C=C/C[C@H](C)[C@@H](C)S(=O)(=O)NC(=O)c2ccc3c(c2)N(C[C@@H]2CC[C@H]21)C[C@@]1(CCCc2cc(Cl)ccc21)CO3 [Example 100061, methyl (1S,3′R,6′R,7′S,8′E,11′S,12′R)-6-chloro-7′-hydroxy-11′,12′-dimethyl-15′-oxo-3,4-dihydro-2H-spiro[naphthalene-1,22′-[20]oxa[13]thia[1,14]diazatetracyclo [14.7.2.0~3,6~.0~19,24~]pentacosa[8,16,18,24]tetraene]-7′-carboxylate 13′,13′-dioxide] | – | 0.78 nM | 529 nM | –
CO[C@]1(CN2CCN3CCS(=O)(=O)C[C@@H]3C2)/C=C/C[C@H](C)[C@@H](C)S(=O)(=O)NC(=O)c2ccc3c(c2)N(C[C@@H]2CC[C@H]21)C[C@@]1(CCCc2cc(Cl)ccc21)CO3 (single isomer, unassigned) [Example 221] | 0.069 nM | – | – | IC50 [2, 8]: 120 nM
(1 S,3′R,6′R,7′S,8′E, 11′S,12′R)-6-chloro-11′,12′-dimethyl-7′-(2-methylpropoxy)-7′-((4-(3-oxetanyl)-1-piperazinyl)methyl)-3,4-dihydro-2H,15′H-spiro[naphthalene-1,22′-[20]oxa[13]thia[1,14]diazatetracyclo[14.7.2.0-3,6˜.0˜19,24˜]pentacosa[8,16,18,24]tetraen]-15′-one 13′,13′-dioxide [Example 348] | 2.62 nM | – | – | IC50 [2, 8]: 5360 nM
